From publication PMC9823735, “Inhibition of Leishmania infantum Trypanothione Reductase by New Aminopropanone Derivatives Interacting with the NADPH Binding Site” (Molecules, 2023)

Assays:
[1] = tested on: L. infantum promastigotes; parameters: method as in PMID 30475811; details: read-out: IC50 anti-proliferative effect; cited from earlier work
[2] = target: T1, LiTR (Leishmania infantum, UniProt A4HSF7); parameters: method as in PMID 30475811; details: residual LiTR activity with 100 μM inhibitor; reference compound; cited from earlier work
T1 construct: LiTR has been expressed and purified as reported previously; made in house

[3] = tested on: hGR; parameters: method as in PMID 30475811; details: cited from earlier work
[4] = target: T1, LiTR; test: LiTR enzymatic inhibition assay (NADPH oxidation, absorbance at 340 nm); assay type: biochemical; details: for activity at 100 µM: read-out: LiTR Activity (% at 100 µM)
Procedure: (§1) Furthermore, the best acting compound, namely 2b, reduced the activity of the enzyme by 47%.
Enzymatic inhibition assays were performed at 25 °C using a JASCO V650 spectrophotometer equipped with a JASCO EHC-716 Peltier unit. LiTR (50 nM) was mixed with 100 μM of the compounds and 150 μM trypanothione in 50 mM HEPES pH 7.4, 40 mM NaCl, and incubated at 25 °C for 3 min. The reaction was started upon addition of 100 μM NADPH. Oxidation of the NADPH was followed as a decrease in absorbance at 340 nm. The best inhibitor candidate (2b) was then tested under the same conditions at concentrations ranging from 0.1 to 200 μM to determine the IC50. LiTR activity was determined as V0(compound)/V0(control)*100, where V0 is the initial velocity. The IC50 was determined using a dose response logistic equation defined by the Kaleidagraph software as ymin + (ymax-ymin)/(1 + (x/IC50)^slope).

[5] = target: T2, human homolog glutathione reductase (Homo sapiens, UniProt P00390); test: Glutathione reductase inhibition assay (NADPH oxidation, absorbance at 340 nm); assay type: biochemical
T2 construct: purchased Sigma Aldrich
T2 sequence (P00390 44-522): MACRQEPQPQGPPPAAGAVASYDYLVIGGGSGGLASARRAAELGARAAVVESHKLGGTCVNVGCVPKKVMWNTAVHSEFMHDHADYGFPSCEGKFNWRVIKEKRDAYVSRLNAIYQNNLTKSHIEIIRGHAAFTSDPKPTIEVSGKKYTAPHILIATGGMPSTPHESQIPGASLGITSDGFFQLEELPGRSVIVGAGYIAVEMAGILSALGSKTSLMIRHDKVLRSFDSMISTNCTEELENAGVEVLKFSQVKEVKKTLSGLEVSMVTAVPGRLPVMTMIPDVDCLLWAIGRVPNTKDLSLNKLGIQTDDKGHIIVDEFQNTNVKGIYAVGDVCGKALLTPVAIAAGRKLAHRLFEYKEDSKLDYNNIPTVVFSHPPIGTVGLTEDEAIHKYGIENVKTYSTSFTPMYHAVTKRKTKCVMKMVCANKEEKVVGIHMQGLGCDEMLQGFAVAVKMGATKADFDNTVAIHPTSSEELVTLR
Procedure: as §1
Figure S9: Conformation of compound 3c with the lowest energy in the most populated cluster.
Figure S10. Inhibition kinetics of the glutathione reductase in the presence of compound 2b. Inhibition assays were performed at 25 °C using a JASCO V650 spectrophotometer equipped with a JASCO EHC-716 Peltier unit. Glutathione Reductase (GR) 50 nM, (purchased from Sigma Aldrich) was mixed with varying concentrations of compound 2b (0.1 to 200 μM) and 150 μM oxidized glutathione in 50 mM HEPES pH 7.4, 40 mM NaCl; and incubated at 25°C for 3 minutes. The reaction was started upon addition of 100 μM NADPH. Oxidation of NADPH was followed as a decrease in absorbance at 340 nm. GR activity was determined as V0(compound)/V0(control)*100 where V0 is the initial velocity. The IC50 was determined using a dose response logistic equation defined by the Kaleidagraph software as ymin+(ymax-ymin)/(1+(x/IC50)^slope). […]

T1 sequence (A4HSF7 1-491): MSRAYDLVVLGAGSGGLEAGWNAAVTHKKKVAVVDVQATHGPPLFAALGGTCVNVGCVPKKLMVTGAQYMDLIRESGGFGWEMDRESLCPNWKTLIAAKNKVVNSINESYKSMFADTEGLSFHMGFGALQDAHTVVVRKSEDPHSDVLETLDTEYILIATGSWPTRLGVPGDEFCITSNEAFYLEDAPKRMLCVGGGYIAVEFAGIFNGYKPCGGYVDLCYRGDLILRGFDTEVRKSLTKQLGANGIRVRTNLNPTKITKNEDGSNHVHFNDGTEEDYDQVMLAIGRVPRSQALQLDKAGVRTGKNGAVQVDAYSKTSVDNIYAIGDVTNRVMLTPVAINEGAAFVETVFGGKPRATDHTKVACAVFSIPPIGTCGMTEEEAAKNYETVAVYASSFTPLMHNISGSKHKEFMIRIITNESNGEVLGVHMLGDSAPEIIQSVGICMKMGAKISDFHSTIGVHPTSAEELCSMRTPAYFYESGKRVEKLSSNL

Row | Compound | activity at 100 µM [4] [%] | other results
1 | CCN(CC)CCOC(=O)c1ccc(NCCC(=O)c2ccc([N+](=O)[O-])cc2)cc1 [Compound 1, 2-(diethylamino)ethyl 4-((3-(4-nitrophenyl)-3-oxopropyl)amino)benzoate] | – | IC50 [1]: 12.4 µM; LiTR Activity (% at 100 µM) [2]: <10.0 [10] %; IC50 [3]: > 85 µM
2 | CCN(CC)CCOC(=O)c1ccc(NCCC(=O)c2ccc(Br)cc2)cc1 [Compound 2c, 2-(Diethylamino)ethyl 4-((3-(4-bromophenyl)-3-oxopropyl)amino)benzoate] | 73.8 ± 4.6 | –
3 | CCN(CC)CCOC(=O)c1ccc(NCCC(=O)c2ccc(-c3ccc(Cl)cc3)cc2)cc1 [Compound 2b, 2-(Diethylamino)ethyl 4-((3-(4’-chloro-[1,1’-biphenyl]-4-yl)-3-oxopropyl)amino)benzoate] | 47 ± 9.7 | IC50 ([5]; 25 °C, 50 nM GR, 150 μM oxidized glutathione, 100 μM NADPH): > 150 µM; IC50 on glutathione reductase relative to IC50 on TR (selectivity) ([5]; GR versus LiTR): more than two-fold higher; residual LiTR activity ([4]; 100 μM compound): 47%; IC50 ([4]; 25 °C, 150 μM trypanothione, 100 μM NADPH, average of three experiments): 65 µM
4 | CCN(CC)CCOC(=O)c1ccc(NCCC(=O)c2ccc(F)cc2)cc1 [Compound 2e, 2-(Diethylamino)ethyl 4-((3-(4-fluorophenyl)-3-oxopropyl)amino)benzoate] | 60.5 ± 4.1 | –
5 | CCN(CC)CCOC(=O)c1ccc(NCCC(=O)c2ccc(-c3ccccc3)cc2)cc1 [Compound 2a, 2-(Diethylamino)ethyl 4-((3-([1,1’-biphenyl]-4-yl)-3-oxopropyl)amino)benzoate] | 55.4 ± 13.3 | –
6 | CCN(CC)CCNC(=O)c1ccc(NCCC(=O)c2ccc(-c3ccccc3)cc2)cc1 [Compound 3a, 4-((3-([1,1’-Biphenyl]-4-yl)-3-oxopropyl)amino)-N-(2-(diethylamino)ethyl)benzamide] | 68.4 ± 6.7 | –
7 | CCN(CC)CCNC(=O)c1ccc(NCCC(=O)c2ccc(-c3ccc(Cl)cc3)cc2)cc1 [Compound 3b, 4-((3-(4’-Chloro-[1,1’-biphenyl]-4-yl)-3-oxopropyl)amino)-N-(2-(diethylamino)ethyl)benzamide] | 59.4 ± 2.4 | –
8 | CCN(CC)CCNC(=O)c1ccc(NCCC(=O)c2ccc(Br)cc2)cc1 [Compound 3c, 4-((3-(4-Bromophenyl)-3-oxopropyl)amino)-N-(2-(diethylamino)ethyl)benzamide] | 87.3 ± 1.9 | –
9 | CCN(CC)CCOC(=O)c1ccc(N(CCC(=O)c2ccc(F)cc2)CCC(=O)c2ccc(F)cc2)cc1 [Compound 2f, 2-(Diethylamino)ethyl 4-(bis(3-(4-fluorophenyl)-3-oxopropyl)amino)benzoate] | 75 ± 2.4 | –
10 | CCN(CC)CCOC(=O)c1ccc(NCCC(=O)c2ccccc2)cc1 [Compound 2d, 2-(Diethylamino)ethyl 4-((3-oxo-3-phenylpropyl)amino)benzoate] | 73.8 ± 4.4 | –
